Consider three compounds from patent EP0219616A1, “N,N'-dimethyl-N,N'-4,10-dioxa-3,11-dioxo-1,13-tridecylene-bis-tetrahydropapaverinium dichloride” (S O "PHARMACHIM", priority 1985, dated 1987).

Like-named read-outs stand apart in the source and are kept apart here.

Data set [1] is described as follows: Solubility compared with known salts (no method given). The class given is physicochemical.
A short description of data set [2]: Comparative stability in aqueous acidic medium, content by HPLC. The class given is physicochemical. How it is done:
[…] Die Prüfung wurde bei unterschiedlichen pH-Werten in dem angegebenen Intervall durch Behandlung der wässrigen Lösungen des Dichlormethylats der Formel I und des Bezylats bei einer Temperatur von 53°C während 40 Stunden durchgeführt.
Chromatografische Bedingungen: Säule mit umgekehrter Phase C18, bewegliche Phase: wässrige 0,1 M Kaliumhydrogenphosphat, enthaltend Natriumoktylhydrogensulfat (1 g/I) und Azetonitril in einem Verhältnis 1:1. Durchlaßgeschwindigkeit 1,5 ml/Min.
Es werden je 7 Proben einer 0,5%-igen wässrigen Lösung des Dichlorids I und des Dibezylats mit bestimmten pH-Werten zubereitet, was durch Zufügen von Ortophospharsäure ereicht wird. Die Proben verweilen 40 Stunden bei einer Temperatur von 53°C. Danach wird der Prozentgehalt an Dichlorid und Dibezylat in den Proben gemessen.

Data set [3] has as its system Neuromuskel-Übertragung. In words: Sciatic nerve-gastrocnemius preparation in cats: muscle contraction on nerve stimulation (neuromuscular block). It counts as in vivo, Katzen. The following applies: for Eintreten der Neuro-muskel-Blockierung / Wiederherstellung der Neuromuskel-Übertragung: dose 0,2 mg/kg. The source says:
Die Versuche wurden an Katzen unter Einführen von gleichen Dosen des Originalpräparats "Tracrium" und der Verbindung der Formel I. Es wurde das klassische Verfahren "I-schiadiensgastrocnemicus" benutzt. Es wurde eine Kontraktion des Muskels Gastrocnemicus zufolge einer Reizung des Hüftnervs (Ischiasnervs) registriert. Die Ergebnisse sind in Tabelle II dargestellt.

For data set [4] the following is noted: pH 2,5; literature reference (4); cited from earlier work.

`COc1ccc(CC2c3cc(OC)c(OC)cc3CC[N+]2(C)CCC(=O)OCCCCCOC(=O)CC[N+]2(C)CCc3cc(OC)c(OC)cc3C2Cc2ccc(OC)c(OC)c2)cc1OC` (stereo not shown) [Dichlormethylat der Formel I, N,N-Dimethyl-N,N-4,10-dioxa-3,11-dioxotridezylen-1,13-tetrachydropapaverinoil-dichlorid]: the “Löslichkeit im Vergleich zu dem bekannten Dijodid und den anderen Salzen derselben Gruppe” value in data set [1] is given as “bessere Löslichkeit”. The remaining at 40 h is 91.9% in data set [2] (acidic aqueous solution, pH 3, at pH 3,0 -3,27, 53°C, read-out: Prozentgehalt, Maximum); 86 to 91.9% in data set [2] (acidic aqueous solution, pH interval 2,46 bis 3,77, 53°C, read-out: Prozentgehalt); 88.1% in data set [2] (aqueous solution, phosphoric acid, pH 2, pH 2,46, 0,5% aqueous solution, 53°C, read-out: Prozent-gehalt); 89.5% in data set [2] (aqueous solution, phosphoric acid, pH 2, pH 2,75, 0,5% aqueous solution, 53°C, read-out: Prozent-gehalt); 91.9% in data set [2] (aqueous solution, phosphoric acid, pH 3, pH 3,04, 0,5% aqueous solution, 53°C, read-out: Prozent-gehalt); 91.4% in data set [2] (aqueous solution, phosphoric acid, pH 3, pH 3,27, 0,5% aqueous solution, 53°C, read-out: Prozent-gehalt). Also, in data set [2] (aqueous solution, phosphoric acid, pH 3, pH 3,58, 0,5% aqueous solution, 53°C, read-out: Prozent-gehalt), the remaining at 40 h amounted to 87.6%. In data set [2] (aqueous acidic medium, pH 1,7 bis 4,0, 53°C, 40 h), the “Stabilität im Vergleich zum Bezylat” value is listed as “wesentlich stabiler”. Besides, the Prozent-gehalt in data set [2] (pH 4,09, 0,5% aqueous solution, 53°C, 40 h, listed as Dichlor-methyl der Formel I, 2400 min) was 70,4%. Also, the “Eintreten der Neuro-muskel-Blockierung” value in data set [3] (cats) is 60,3 Sek. The “Wiederherstellung der Neuromuskel-Übertragung” value in data set [3] (cats) is recorded as 29,8 Min. In addition, the “Eintreten, Wiederherstellung und Dauer des Effekts der Neuromuskelübertragung im Vergleich zu "Tracrium"” value in data set [3] (cats, equal doses) is reported as “keinen statistisch wesentlichen Unterschied”. Also, the “biologischer Effekt bei den pharmakologischen Prüfungen” value in data set [3] (same effect with smaller quantity of active substance) was “verbesserten biologischen Effekt”.
Take `COc1ccc(CC2c3cc(OC)c(OC)cc3CC[N+]2(C)CCC(=O)OCCCCCOC(=O)CC[N+]2(C)CCc3cc(OC)c(OC)cc3C2Cc2ccc(OC)c(OC)c2)cc1OC` (stereo not shown) [Tracrium, Dibesylat des N,N-4,10-Dioxa-3,11-Dioxotridezylen-1,13-bis-tetrahydropapaverins, reference compound]: in data set [3] (cats), the “Eintreten der Neuro-muskel-Blockierung” value was 60,4 Sek and the “Wiederherstellung der Neuromuskel-Übertragung” value is 34,6 Min.
In the case of `COc1ccc(CC2c3cc(OC)c(OC)cc3CC[N+]2(C)CCC(=O)OCCCCCOC(=O)CC[N+]2(C)CCc3cc(OC)c(OC)cc3C2Cc2ccc(OC)c(OC)c2)cc1OC` (stereo not shown) [Dibezylat, Dibesylat des N,N-4,10-Dioxa-3,11-Dioxotridezylen-1,13-bis-tetrahydropapaverins, reference compound], the remaining at 40 h was 73.8% in data set [2] (acidic aqueous solution, pH 3, at pH 3,50, 53°C, read-out: Prozentgehalt, Maximum); 60.6% in data set [2] (aqueous solution, phosphoric acid, pH 1, pH 1,76, 0,5% aqueous solution, 53°C, read-out: Prozent-gehalt); 72.9% in data set [2] (aqueous solution, phosphoric acid, pH 2, pH 2,88, 0,5% aqueous solution, 53°C, read-out: Prozent-gehalt); 73.5% in data set [2] (aqueous solution, phosphoric acid, pH 3, pH 3,16, 0,5% aqueous solution, 53°C, read-out: Prozent-gehalt); 73.8% in data set [2] (aqueous solution, phosphoric acid, pH 3, pH 3,50, 0,5% aqueous solution, 53°C, read-out: Prozent-gehalt); 72.2% in data set [2] (aqueous solution, phosphoric acid, pH 3, pH 3,71, 0,5% aqueous solution, 53°C, read-out: Prozent-gehalt). The remaining at 40 h in data set [2] (aqueous solution, phosphoric acid, pH 4, pH 4,09, 0,5% aqueous solution, 53°C, read-out: Prozent-gehalt) is 68.8%. Further, the “Prozentgehalt niedriger im Vergleich zur Verbindung der Formel I” value in data set [2] (pH interval 2,46 bis 3,77, 53°C, 40 h) was around 20%. For the same compound, the “Prozentgehalt des Bezylats bei maximaler Stabilität” value in data set [4] is listed as 76%.
